Assay results as given in US20150174144A1, “TETRACYCLINE COMPOUNDS FOR TREATING NEURODEGENERATIVE DISORDERS” (PARATEK PHARMACEUTICALS, INC., priority 2012, published 2015).
Values after ≈ are worked out from the molar mass of the structure shown. Read-outs that look alike come from different tables or passages of the source.

Legend:
MS = details: cited from earlier work; for % lesion reduction: gadolinium-enhancing MRI lesions
E. coli = assay: Antibacterial activity, E. coli MIC; assay type: cell-based; details: Escherichia coli; Table 8
[1] = test system: animal models of MS and neuroprotection; assay: Accepted animal models of MS and neuroprotection (Table 2); design: concentration or dose not given beside the values; details: in vivo
[2] = Peroxynitrite-carbonate radical scavenging assay (DHR probe); details: for IC50: Sin-1, 37° C., 8 minutes, read-out: IC50, inhibition of oxidation of DHR probe (peroxynitrite-carbonate scavenging); for Uric Acid Equivalents: relative to uric acid
Description: Inflammatory conditions are characterized by increasing concentrations of reactive oxygen species. In this study, the ability of Compound 1 to specifically scavenge peroxynitrite-carbonate radicals was determined.
To the first column of a 96-well PCR plate (0.2 mL volume) was added 160 μL of TCWS. One well of the first column would equal one IC50 determination. Typically, test compounds were assayed in duplicate, i.e. two wells of column 1 were filled with each TCWS. To the remaining wells in columns 2-11 was added 80 μL of DWS. Using a multichannel pipettor, column 1 was serially diluted in 2-fold dilutions by removing 80 μL from column 1 and transferring with mixing to column 2. Column 2 was then diluted to column 3 and so on until column 11 where 80 μL of the diluted mixture was removed and discarded. At least 2 wells of row 12 were designated as the 0 test compound control to which 80 μL of DWS was added. One well of row 12 per test compound was designated as the background control to which 80 μL of the TCWS was added.
(§1) The plate was covered and incubated for 5 minutes at 37° C. upon which the reaction was initiated by addition of 20 μL of Sin-1 to columns 1-11 using a multichannel pipettor with mixing. The reaction was initiated similarly to the 0 test compound wells of column 12. To the background control wells was added 20 μL of PC buffer. The plate was incubated at 37° C. for 8 minutes (the reaction is linear for 10 minutes) and quenched by addition of 50 μL of AA to all wells with mixing. The plate was placed on ice for 5 minutes. Quenched assay mixtures were stable at room temperature for at least 24 hours.
Each reaction mixture (20 μL) was analyzed for rhodamine 123 product by HPLC using a Phenomenex Luna C18(2) column, 3 um, 4.6×50 mm using an A buffer of water+0.1% TFA and a B buffer of acetonitrile+0.1% TFA and the following gradient method: […]
The absorbance at 280 nm was also recorded to ensure no co-elution of test compound peaks.
Initial examination of the background control samples at the highest test compound concentration were performed to ensure no co-elution of test compound peaks with the product rhodamine 123 at 4 minutes. If co-elution was observed, the compound was not tested until an appropriate HPLC method was developed to separate the product and test compound peaks. The rhodamine 123 AUC was then determined for each test compound concentration and the percent inhibition of rhodamine 123 fluorescence was then determined by the following equation:
% Inhibition=[(AUCo−AUCx)/AUCo]*100
Where AUCo is the AUC of the rhodamine 123 peak at 0 test compound concentration and AUCX is the AUC of the rhodamine 123 peak at each test compound concentration=x.
The standard error of the curve fit for the IC50 was also determined along with the Hill slope. The IC50 determined for uric acid was divided by the IC50 determined for each test compound to generate Uric Acid Equivalents, a measure of the peroxynitrite-carbonate radical scavenging ability relative to uric acid.
Uric Acid Equivalents=[…]

[3] = Alkylperoxy radical scavenging assay (AIPH, AE-Trolox oxidation); details: for IC50: 5 mM AIPH, 37° C., 8 minutes, read-out: IC50, inhibition of AE-Trolox oxidation (alkylperoxy radical scavenging); for Percent Trolox Activity / Trolox Equivalents: relative to Trolox
Description: In a separate assay, alkylperoxy radicals were generated in vitro using the radical generator AIPH (2,2′-azobis-[2-(2-imidazolyn-2-yl)-propane) and the ability of tetracyclines to scavenge these radicals was determined. […] Also, the ability of Compound 1 and minocycline to specifically scavenge peroxynitrite-carbonate radicals was determined.
In this study, alkylperoxy radicals were generated in vitro using the radical generator AIPH (2,2′-azobis-[2-(2-imidazolyn-2-yl)-propane) and the ability of tetracyclines, such as Compound 1, to scavenge these radicals was determined.
Trolox is a known scavenger of peroxyradicals. Structurally similar to a-tocopherol, Trolox reacts with peroxyradicals via a known mechanism with linear kinetics under excess oxygen conditions. In the presence of a competing antioxidant compound, the rate of Trolox oxidation will change based on the relative rate of oxidation and concentration of the competing antioxidant compound (Huang, et al., J. Agric. Food Chem. 2005, 25, 1841-1856). By measuring the effect of antioxidant concentration on the rate of degradation of Trolox, the relative antioxidant capacity of a compound can be determined. This principle is the basis of the widely used antioxidant capacity assay, ORAC (Huang, et al., J. Agric. Food Chem. 2002, 50, 1815-1821). Unlike ORAC which uses a fluorescent dye indicator, the assay described here directly measures the oxidation of the Trolox derivative, 2-aminoethyl-Trolox (AE-Trolox). This method eliminates interference of the fluorescent dye reaction by tetracycline compounds.
To the first column of a 96-well PCR plate (0.2 mL volume) was added 160 μL of TCWS. One well of the first column would equal one IC50 determination. […] To the remaining wells in columns 2-11 was added 80 μL of AET-WS. Using a multichannel pipettor, column 1 was serially diluted in 2-fold dilutions by removing 80 μL from column 1 and transferring with mixing to column 2. Column 2 was then diluted to column 3 and so on until column 11 where 80 μL of the diluted mixture was removed and discarded. Four wells of row 12 were designated as the 0 test compound/0 AIPH control to which 80 μL of AET-WS was added. One well of row 12 per test compound was designated as the 0 test compound control to which 80 μL of the AET-WS was added.
as §1, with “AIPH” for “Sin-1”, “0 test compound/0 AIPH” for “background”, “PB” for “PC”
Each reaction mixture was analyzed for AE-Trolox by 2D-LCMS on a Shimadzu 2010 equipped with a loading column (Shim-pack MAYI-ODS, 4.6×10 mm) and a gradient column Phenomenex Luna C18(2) column, 3 um, 4.6×50 mm. Using an automated 2-position swithching valve, samples were loaded onto the loading column by Pump C and washed for 1 minute with loading buffer. At 1 minute, the valve was switched to elution position (Position B, reversed flow through loading column) and the samples were eluted through the gradient column. The loading buffer (Buffer C) was 10% acetonitrile in water with 0.2% formic acid and the gradient buffers were water+0.2% formic acid (A buffer) and acetonitrile+0.2% formic acid (B buffer). Typical injection volumes were 30 μL.
From the TIC integration of AE-Trolox and AE-Trolox-d4, a ratio was calculated:
Ratio=AUCAE-Trolox/AUCAE-Trolox-d4
Percent inhibition of AE-Trolox oxidation (measured as disappearance of AE-Trolox) was then determined by:
% Inhibition=[1−((Ratio0−Ratiox)/(Ratioo−Ratiof))]*100

COC(=O)/C=C/C(=O)OC [BG-12]
% Relapses eduction (MS; MS clinical studies): 32% | potential side effects (MS; MS clinical studies): Flushing | % lesion reduction (MS; MS clinical studies): 69%

C[C@H]1c2cccc(O)c2C(=O)C2=C(O)[C@]3(O)C(=O)C(C(N)=O)=C(O)[C@@H](N(C)C)[C@@H]3[C@@H](O)[C@@H]21 [Doxycycline, doxycycline]
MIC (E. coli): 0.5 µg/mL (≈ 1.13 µM)

CCCCCCCCc1ccc(CCC(N)(CO)CO)cc1 [Fingolimod, 2-amino-2-[2-(4-octylphenyl)ethyl]propane-1,3-diol]
% Inhibition Axon Loss [1]: 60% | % Inhibition Clinical Score [1]: 89% | % Inhibition Demyelination [1]: 69% | % Inhibition Inflammation [1]: 59% | % Relapses eduction (MS; MS clinical studies): 54% | potential side effects (MS; MS clinical studies): Infections, cancer, cardiac | % lesion reduction (MS; MS clinical studies): 30%

CCN(C(=O)c1c(O)c2c(Cl)cccc2n(C)c1=O)c1ccccc1 [Laquinimod]
% Relapses eduction (MS; MS clinical studies): 21% | potential side effects (MS; MS clinical studies): Increase in liver enzymes | % lesion reduction (MS; MS clinical studies): 40%

CN(C)[C@@H]1C(O)=C(C(N)=O)C(=O)[C@@]2(O)C(O)=C3C(=O)c4c(O)cccc4C[C@H]3C[C@@H]12 [Sancycline, sancycline]
IC50 [2]: 66.4 µM | Uric Acid Equivalents [2]: 0.19 | IC50 [3]: 369 µM | Percent Trolox Activity [3]: 2% | Trolox Equivalents [3]: 0.02

C/C(O)=C(\C#N)C(=O)Nc1ccc(C(F)(F)F)cc1 [Teriflunomid]
% Relapses eduction (MS; MS clinical studies): 30% | potential side effects (MS; MS clinical studies): Mild infections, Fatigue, | % lesion reduction (MS; MS clinical studies): 44%

Cc1c(C)c2c(c(C)c1O)CCC(C)(C(=O)O)O2 (centres unmarked) [Trolox]
IC50 [3]: 9 µM | Percent Trolox Activity [3]: 100% | Trolox Equivalents [3]: 1.00

O=c1[nH]c(=O)c2[nH]c(=O)[nH]c2[nH]1 [Uric acid]
IC50 [2]: 12.4 µM | Uric Acid Equivalents [2]: 1

Glatiramer [COPAXONE ®]
% Inhibition Clinical Score [1]: 75% | % Inhibition Demyelination [1]: 74% | % Relapses eduction (MS; MS clinical studies): 30% | % lesion reduction (MS; MS clinical studies): 65% | potential side effects (MS; human, in vivo): Infection, shaking hands,

Natalizumab [TYSABRI ®]
% Relapses eduction (MS; MS clinical studies): 68% | potential side effects (MS; MS clinical studies): Liver damage, fatigue, fatal | % lesion reduction (MS; MS clinical studies): 83%
